Source: patent publication US9216968B2, “Heterocyclic derivative and pharmaceutical drug” (NIPPON SHINYAKU CO., LTD., priority 2011, dated 2015)
Structures can show the parent of a compound that is named as a salt.

Key:
A549 cells = assay: Inhibition of PGE2 production in A549 cell (IL-1β stimulated); assay type: cell-based, human; conditions: Homo sapiens, A549, 24 h, IL-1β 5 ng/well, PGE2 in culture medium
In short: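 After IL-1β (5 ng/well) stimulation for 24 h at 37 °C, following a 60-min compound pretreatment in RPMI with 3% FBS, medium PGE2 (HTRF) and PGF2α (EIA) from human A549 cells were quantified. 100% activity set as IL-1β-induced minus basal production; IC50 calculated.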

human mPGES-1 = human mPGES-1 (Homo sapiens (Human), UniProt O14684); assay: mPGES-1 inhibiting activity (microsome fractions, PGE2 by HTRF); assay type: biochemical; conditions: microsomes from CHO-K1 cells transfected with human mPGES-1; PGH2 1 μM, 4° C., 60 seconds; read-out: mPGES-1 Inhibition IC50
Sequence of human mPGES-1 (O14684 whole entry): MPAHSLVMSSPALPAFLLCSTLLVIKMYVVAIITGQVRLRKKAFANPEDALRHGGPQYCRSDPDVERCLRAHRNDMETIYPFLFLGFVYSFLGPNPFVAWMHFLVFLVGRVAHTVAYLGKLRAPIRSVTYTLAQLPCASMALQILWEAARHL
In short: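 PGE2 formation read by HTRF after 60 s at 4 °C with 1 μM PGH2 substrate, following 20 min compound preincubation (1% DMSO) with human mPGES-1 microsomes from transfected CHO-K1 cells. Buffer: potassium phosphate, reduced glutathione, pH 7.4; IC50 from activity relative to enzyme-free blank.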

Row | SMILES | IC50 (A549 cells) [nM] | IC50 (human mPGES-1) [nM]
1 | COCc1nc2c(C(=O)Nc3ccc(C)c(Cl)c3)cc(NC(=O)c3ccccc3C(F)(F)F)cc2[nH]1 [Example 32, N-(3-Chloro-4-methylphenyl)-2-(methoxymethyl)-6-({[2-(trifluoromethyl)phenyl]carbonyl}amino)-1H-benzimidazole-4-carboxamide hydrochloride] | 71.7 | 5.2
2 | Cc1nc2c(C(=O)Nc3cccc(Cl)c3C)cc(NC(=O)c3ccccc3C(F)(F)F)cc2[nH]1 [Example 14, N-(3-Chloro-2-methylphenyl)-2-methyl-6-({[2-(trifluoromethyl)phenyl]carbonyl}amino)-1H-benzimidazole-4-carboxamide hydrochloride] | 15.2 | 3.8
3 | CCOCCc1nc2c(C(=O)Nc3cccc(Cl)c3C)cc(NC(=O)c3ccccc3C(F)(F)F)cc2[nH]1 [Example 78, N-(3-Chloro-2-methylphenyl)-2-(2-ethoxyethyl)-6-({[2-(trifluoromethyl)phenyl]carbonyl}amino)-1H-benzimidazole-4-carboxamide hydrochloride] | 177 | 96.8
4 | Cc1c(Cl)cccc1NC(=O)c1cc(NC(=O)c2ccccc2C(F)(F)F)cc2[nH]c(CN(C)C)nc12 [Example 58, N-(3-Chloro-2-methylphenyl)-2-[(dimethylamino)methyl]-6-({[2-(trifluoromethyl)phenyl]carbonyl}amino)-1H-benzimidazole-4-carboxamide hydrochloride] | 157 | 5.4
5 | CCCC(C)(C)c1nc2c(C(=O)Nc3cccc(Cl)c3C)cc(NC(=O)c3ccccc3C(F)(F)F)cc2[nH]1 [Example 84, N-(3-Chloro-2-methylphenyl)-2-(2-methylpentan-2-yl)-6-({[2-(trifluoromethyl)phenyl]carbonyl}amino)-1H-benzimidazole-4-carboxamide hydrochloride] | 6.5 | 0.8
6 | COCC(C)(C)CNc1nc2c(C(=O)Nc3cccc(Cl)c3C)cc(NC(=O)c3c(F)cccc3Cl)cc2[nH]1 [Example 196, 6-{[(2-Chloro-6-fluorophenyl)carbonyl]amino}-N-(3-chloro-2-methylphenyl)-2-[(3-methoxy-2,2-dimethylpropyl)amino]-1H-benzimidazole-4-carboxamide hydrochloride] | 35.9 | 6.5
7 | Cc1c(Cl)cccc1NC(=O)c1cc(NC(=O)c2ccccc2C(F)(F)F)cc2[nH]c([C@@H]3CCCN3C(=O)OC(C)(C)C)nc12 [Example 69, tert-Butyl (2S)-2-{4-[(3-chloro-2-methylphenyl)carbamoyl]-6-({[2-(trifluoromethyl)phenyl]carbonyl}amino)-1H-benzimidazol-2-yl}pyrrolidine 1-carboxylate] | 21.6 | 10
8 | Cc1c(Cl)cccc1NC(=O)c1cc(NC(=O)c2ccccc2C(F)(F)F)cc2c1nc(NCC(C)(C)CO)n2C [Example 162, N-(3-Chloro-2-methylphenyl)-2-[(3-hydroxy-2,2-dimethylpropyl)amino]-1-methyl-6-({[2-(trifluoromethyl)phenyl]carbonyl}amino)-1H-benzimidazole-4-carboxamide hydrochloride] | 52.2 | 23.8
9 | Cc1c(Cl)cccc1NC(=O)c1cc(NC(=O)c2ccccc2C(F)(F)F)cc2[nH]c(NCC(C)(C)C)nc12 [Example 140, N-(3-Chloro-2-methylphenyl)-2-[(2,2-dimethylpropyl)amino]-6-({[2-(trifluoromethyl)phenyl]carbonyl}amino)-1H-benzimidazole-4-carboxamide hydrochloride] | 33 | 0.2
10 | CCOCc1nc2c(C(=O)NCc3ncccc3C(F)(F)F)cc(NC(=O)c3ccccc3C(F)(F)F)cc2[nH]1 [Example 80, 2-(Ethoxymethyl)-6-({[2-(trifluoromethyl)phenyl]carbonyl}amino)-N-{[3-(trifluoromethyl)pyridin-2-yl]methyl}-1H-benzimidazole-4-carboxamide dihydrochloride] | 1250 | 29.4
11 | O=C(Nc1cc2c(c(C(=O)NC3CCCCC3)c1)OCC2)c1ccccc1C(F)(F)F [Example 7, N-Cyclohexyl-5-({[2-(trifluoromethyl)phenyl]carbonyl}amino)-2,3-dihydro-1-benzofuran-7-carboxamide] | 342 | 105
12 | Cc1c(Cl)cccc1NC(=O)c1cc(NC(=O)c2ccccc2C(F)(F)F)cc2[nH]c([S+](C)[O-])nc12 (centres unmarked) [Example 181, N-(3-Chloro-2-methylphenyl)-2-(methylsulfinyl)-6-({[2-(trifluoromethyl)phenyl]carbonyl}amino)-1H-benzimidazole-4-carboxamide] | 705 | 1.1
13 | Cc1c(Cl)cccc1NC(=O)c1cc(NC(=O)c2ccccc2C(F)(F)F)cc2c1OCC2 [Example 8, N-(3-Chloro-2-methylphenyl)-5-({[2-(trifluoromethyl)phenyl]carbonyl}amino)-2,3-dihydro-1-benzofuran-7-carboxamide] | 106 | 160
14 | COCc1nc2c(C(=O)Nc3cccc(Cl)c3C)cc(NC(=O)c3c(Cl)cccc3Cl)cc2[nH]1 [Example 98, N-(3-Chloro-2-methylphenyl)-6-{[(2,6-dichlorophenyl)carbonyl]amino}-2-(methoxymethyl)-1H-benzimidazole-4-carboxamide hydrochloride] | 11.9 | 6
15 | COCc1nc2c(C(=O)Nc3nc4ccccc4o3)cc(NC(=O)c3ccccc3C(F)(F)F)cc2[nH]1 [Example 232, N-(1,3-Benzoxazol-2-yl)-2-(methoxymethyl)-6-({[2-(trifluoromethyl)phenyl]carbonyl}amino)-1H-benzimidazole-4-carboxamide hydrochloride] | 125 | 7.7
16 | COCc1nc2c(C(=O)Nc3cccc(Cl)c3C)cc(NC(=O)c3ncccc3F)cc2[nH]1 [Example 244, N-(3-Chloro-2-methylphenyl)-6-{[(3-fluoropyridin-2-yl)carbonyl]amino}-2-(methoxymethyl)-1H-benzimidazole-4-carboxamide hydrochloride] | 104 | 56.2
17 | Cn1cnc2c(C(=O)NCc3ccccc3C(F)(F)F)cc(NC(=O)c3ccccc3C(F)(F)F)cc21 [Example 48, 1-Methyl-N-[2-(trifluoromethyl)benzyl]-6-({[2-(trifluoromethyl)phenyl]carbonyl}amino)-1H-benzimidazole-4-carboxamide] | 146 | 49.9
18 | COCc1nc2c(C(=O)NCc3ccccc3)cc(NC(=O)c3ccccc3C(F)(F)F)cc2[nH]1 [Example 217, N-Benzyl-2-(methoxymethyl)-6-({[2-(trifluoromethyl)phenyl]carbonyl}amino)-1H-benzimidazole-4-carboxamide hydrochloride] | 317 | 26.9
19 | CN(C)c1nc2c(C(=O)Nc3ccc(C(C)(C)C)cc3)cc(NC(=O)c3ccccc3C(F)(F)F)cc2[nH]1 [Example 203, N-(4-tert-Butylphenyl)-2-(dimethylamino)-6-({[2-(trifluoromethyl)phenyl]carbonyl}amino)-1H-benzimidazole-4-carboxamide hydrochloride] | 5.2 | 1.4
20 | CC(C)(C)c1nc2c(C(=O)NCc3ncccc3C(F)(F)F)cc(NC(=O)c3ccccc3C(F)(F)F)cc2[nH]1 [Example 77, 2-tert-Butyl-6-({[2-(trifluoromethyl)phenyl]carbonyl}amino)-N-{[3-(trifluoromethyl)pyridin-2-yl]methyl}-1H-benzimidazole-4-carboxamide dihydrochloride] | 32.9 | 1.7
21 | CCOCCOCc1ccc(Cl)c(C(=O)Nc2cc(C(=O)Nc3cccc(Cl)c3C)c3nc(COC)[nH]c3c2)c1 [Example 121, 6-[({2-Chloro-5-[(2-ethoxyethoxy)methyl]phenyl}carbonyl)amino]-N-(3-chloro-2-methylphenyl)-2-(methoxymethyl)-1H-benzimidazole-4-carboxamide hydrochloride] | 432 | 6.3
22 | Cc1c(Cl)cccc1NC(=O)c1cc(NC(=O)c2ccccc2C(F)(F)F)cc2[nH]c(NCC(=O)O)nc12 [Example 161, N-{4-[(3-Chloro-2-methylphenyl)carbamoyl]-6-({[2-(trifluoromethyl)phenyl]carbonyl}amino)-1H-benzimidazol-2-yl}glycine hydrochloride] | > 10000 | 3.8
23 | CCc1nc2c(C(=O)NCc3ccccc3C(F)(F)F)cc(NC(=O)c3ccccc3C(F)(F)F)cc2[nH]1 [Example 19, 2-Ethyl-N-[2-(trifluoromethyl)benzyl]-6-({[2-(trifluoromethyl)phenyl]carbonyl}amino)-1H-benzimidazole-4-carboxamide] | 47.8 | 9.4
24 | COCc1nc2c(C(=O)Nc3ccccc3F)cc(NC(=O)c3ccccc3C(F)(F)F)cc2[nH]1 [Example 35, N-(2-Fluorophenyl)-2-(methoxymethyl)-6-({[2-(trifluoromethyl)phenyl]carbonyl}amino)-1H-benzimidazole-4-carboxamide] | 205 | 20.3
25 | COCc1nc2c(C(=O)Nc3cccc(Cl)c3C)cc(NC(=O)c3ccccc3S(C)(=O)=O)cc2[nH]1 [Example 212, N-(3-Chloro-2-methylphenyl)-2-(methoxymethyl)-6-({[2-(methylsulfonyl)phenyl]carbonyl}amino)-1H-benzimidazole-4-carboxamide] | 305 | 42.3
